Assay results reported in patent US9624209B2, “Substituted phenylureas and phenylamides as vanilloid receptor ligands” (Gruenenthal GmbH, priority 2009, dated 2017).

What follows are molecules tested against T1, vanilloid receptor 1 (VR1/TRPV1 receptor) (Homo sapiens, UniProt Q8NER1) (assay: VR1/TRPV1 receptor affinity, capsaicin stimulus (human)). Settings: @ 5 μM, Tables 8-12, read-out: (f) Ki (human being) [nM] Cap: inhibition (as a percentage).
T1 construct: expressed in transfected cells; host or cells: CHO K1 cells (ECACC), stably transfected
T1 sequence (Q8NER1 whole entry): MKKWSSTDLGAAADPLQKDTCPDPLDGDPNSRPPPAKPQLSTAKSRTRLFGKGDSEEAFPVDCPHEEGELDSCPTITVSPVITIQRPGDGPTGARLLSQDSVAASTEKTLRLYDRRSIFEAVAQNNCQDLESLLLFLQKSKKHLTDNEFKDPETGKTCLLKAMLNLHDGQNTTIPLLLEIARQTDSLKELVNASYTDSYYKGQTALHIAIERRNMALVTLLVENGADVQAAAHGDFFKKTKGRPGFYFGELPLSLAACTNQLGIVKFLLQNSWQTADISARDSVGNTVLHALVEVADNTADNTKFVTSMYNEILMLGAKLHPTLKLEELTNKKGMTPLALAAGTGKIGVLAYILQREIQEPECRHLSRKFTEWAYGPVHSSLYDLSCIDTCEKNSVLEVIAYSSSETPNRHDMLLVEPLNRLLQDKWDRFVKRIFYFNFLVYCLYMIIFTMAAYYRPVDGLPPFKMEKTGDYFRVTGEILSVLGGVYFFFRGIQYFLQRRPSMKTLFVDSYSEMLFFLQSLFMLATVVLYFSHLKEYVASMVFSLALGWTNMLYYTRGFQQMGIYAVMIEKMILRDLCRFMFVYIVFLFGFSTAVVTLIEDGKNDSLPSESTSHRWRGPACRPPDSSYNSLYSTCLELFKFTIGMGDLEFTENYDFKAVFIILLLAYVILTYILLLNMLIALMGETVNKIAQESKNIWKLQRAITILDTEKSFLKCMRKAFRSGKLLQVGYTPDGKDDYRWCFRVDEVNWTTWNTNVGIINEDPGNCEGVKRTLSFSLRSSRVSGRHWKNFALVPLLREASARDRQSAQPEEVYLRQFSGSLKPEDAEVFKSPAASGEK
Format: cell-based, human being
Set-up: key to (f) Ki (human being) [nM] Cap: result in words: AG=agonist; pAG=partial agonist; NE=no effect

Row | inhibition at 5 µM | SMILES
1 | 50% | O=C(NCc1cc(C(F)(F)F)nn1-c1cccc(F)c1)Nc1ccc(N2CC(O)C2)c(F)c1 [Example C9, 1-[3-Fluoro-4-(3-hydroxy-azetidin-1-yl)-phenyl]-3-[[2-(3-fluorophenyl)-5-(trifluoromethyl)-2H-pyrazol-3-yl]-methyl]-urea]
2 | 55% | CC(C(=O)NCc1cc(C(F)(F)F)nn1-c1cccc(F)c1)c1ccc(S(C)(=O)=O)c(F)c1 (centres unmarked) [Example D3, 2-(3-Fluoro-4-methylsulfonyl-phenyl)-N-[[2-(3-fluorophenyl)-5-(trifluoromethyl)-2H-pyrazol-3-yl]-methyl]-propionamide]

Same assay, conditions: Tables 8-12

Row | (f) Ki (human being) [nM] Cap: result in words | SMILES
3 | AG | CC(C(=O)NCc1cc(C(C)(C)C)nn1-c1cccc(Cl)c1)c1ccc(S(C)(=O)=O)c(F)c1 (centres unmarked) [Example D1, N-[[5-tert-Butyl-2-(3-chlorophenyl)-2H-pyrazol-3-yl]-methyl]-2-(3-fluoro-4-methylsulfonyl-phenyl)-propionamide]

Same assay, conditions: Tables 8-12, read-out: (f) Ki (human being) [nM] Cap

Row | Ki | SMILES
4 | 43 nM | O=C(NCc1cc(C(F)(F)F)nn1-c1cccc(Cl)c1)Nc1ccc(N2CC(O)C2)c(F)c1 [Example C6, 1-[[2-(3-Chlorophenyl)-5-(trifluoromethyl)-2H-pyrazol-3-yl]-methyl]-3-[3-fluoro-4-(3-hydroxy-azetidin-1-yl)-phenyl]-urea]
5 | 15 nM | CC(C)(C)c1cc(CNC(=O)Nc2ccc(N3CC(O)C3)c(F)c2)n(-c2cccc(Cl)c2)n1 [Example C7, 1-[[5-tert-Butyl-2-(3-chlorophenyl)-2H-pyrazol-3-yl]-methyl]-3-[3-fluoro-4-(3-hydroxy-azetidin-1-yl)-phenyl]-urea]
6 | 73 nM | CC(C(=O)NCc1cc(C(F)(F)F)nn1-c1cccc(Cl)c1)c1ccc(S(C)(=O)=O)c(F)c1 (centres unmarked) [Example D2, N-[[2-(3-Chlorophenyl)-5-(trifluoromethyl)-2H-pyrazol-3-yl]-methyl]-2-(3-fluoro-4-methylsulfonyl-phenyl)-propionamide]
7 | 38 nM | CC(C(=O)NCc1cc(C(F)(F)F)nn1-c1cccc(Cl)c1)c1ccc(CS(C)(=O)=O)c(F)c1 (centres unmarked) [Example D6, N-[[2-(3-Chlorophenyl)-5-(trifluoromethyl)-2H-pyrazol-3-yl]-methyl]-2-[3-fluoro-4-(methylsulfonyl-methyl)-phenyl]-propionamide]
8 | 27 nM | CC(C(=O)NCc1cc(C(C)(C)C)nn1-c1cccc(Cl)c1)c1ccc(CS(C)(=O)=O)c(F)c1 (centres unmarked) [Example D7, N-[[5-tert-Butyl-2-(3-chlorophenyl)-2H-pyrazol-3-yl]-methyl]-2-[3-fluoro-4-(methylsulfonyl-methyl)-phenyl]-propionamide]
9 | 48 nM | CC(C(=O)NCc1cc(C(C)(C)C)nn1-c1ccc(F)c(Cl)c1)c1ccc(CS(C)(=O)=O)c(F)c1 (centres unmarked) [Example D8, N-[[5-tert-Butyl-2-(3-chloro-4-fluoro-phenyl)-2H-pyrazol-3-yl]-methyl]-2-[3-fluoro-4-(methylsulfonyl-methyl)-phenyl]-propionamide]
10 | 30 nM | CC(C(=O)NCc1cc(C(C)(C)C)nn1-c1cccc(F)c1)c1ccc(CS(C)(=O)=O)c(F)c1 (centres unmarked) [Example D9, N-[[5-tert-Butyl-2-(3-fluorophenyl)-2H-pyrazol-3-yl]-methyl]-2-[3-fluoro-4-(methylsulfonyl-methyl)-phenyl]-propionamide]
11 | 42 nM | CS(=O)(=O)CCc1ccc(NC(=O)NCc2cc(C3CC3)nn2-c2cccc(Cl)c2)cc1F [Example D26, 1-[[2-(3-Chlorophenyl)-5-cyclopropyl-2H-pyrazol-3-yl]-methyl]-3-[3-fluoro-4-(2-methylsulfonyl-ethyl)-phenyl]-urea]
12 | 40 nM | CS(=O)(=O)CCc1ccc(NC(=O)NCc2cc(C(F)(F)F)nn2-c2cccc(Cl)c2)cc1F [Example D27, 1-[[2-(3-Chlorophenyl)-5-(trifluoromethyl)-2H-pyrazol-3-yl]-methyl]-3-[3-fluoro-4-(2-methylsulfonyl-ethyl)-phenyl]-urea]
13 | 32 nM | CS(=O)(=O)CCc1ccc(NC(=O)NCc2cc(C(F)(F)F)nn2-c2ccc(F)c(Cl)c2)cc1F [Example D28, 1-[[2-(3-Chloro-4-fluoro-phenyl)-5-(trifluoromethyl)-2H-pyrazol-3-yl]-methyl]-3-[3-fluoro-4-(2-methylsulfonyl-ethyl)-phenyl]-urea]
14 | 13 nM | CC(C)(C)c1cc(CNC(=O)Nc2ccc(CCS(C)(=O)=O)c(F)c2)n(-c2cccc(Cl)c2)n1 [Example D29, 1-[[5-tert-Butyl-2-(3-chlorophenyl)-2H-pyrazol-3-yl]-methyl]-3-[3-fluoro-4-(2-methylsulfonyl-ethyl)-phenyl]-urea]
15 | 15 nM | CC(C)(C)c1cc(CNC(=O)Nc2ccc(CCS(C)(=O)=O)c(F)c2)n(-c2cc(F)cc(F)c2)n1 [Example D31, 1-[[5-tert-Butyl-2-(3,5-difluoro-phenyl)-2H-pyrazol-3-yl]-methyl]-3-[3-fluoro-4-(2-methylsulfonyl-ethyl)-phenyl]-urea]
16 | 4 nM | CC(C)c1cccc(-n2nc(C(F)(F)F)cc2CNC(=O)Nc2ccc(CCS(C)(=O)=O)c(F)c2)c1 [Example D33, 1-[3-Fluoro-4-(2-methylsulfonyl-ethyl)-phenyl]-3-[[2-(3-isopropyl-phenyl)-5-(trifluoromethyl)-2H-pyrazol-3-yl]-methyl]-urea]

Second part, the molecule before the results:

Row | SMILES | Ki
17 | CC(C(=O)NCc1cc(C(F)(F)F)nn1-c1ccc(F)c(Cl)c1)c1ccc(S(C)(=O)=O)c(F)c1 (centres unmarked) [Example D4, N-[[2-(3-Chloro-4-fluoro-phenyl)-5-(trifluoromethyl)-2H-pyrazol-3-yl]-methyl]-2-(3-fluoro-4-methylsulfonyl-phenyl)-propionamide] | 41 nM
18 | CC(C(=O)NCc1cc(C(F)(F)F)nn1-c1cccc(Cl)c1)c1ccc(S(C)(=O)=O)c(Cl)c1 (centres unmarked) [Example D5, 2-(3-Chloro-4-methylsulfonyl-phenyl)-N-[[2-(3-chlorophenyl)-5-(trifluoromethyl)-2H-pyrazol-3-yl]-methyl]-propionamide] | 7 nM
19 | CC(C(=O)NCc1cc(C(F)(F)F)nn1-c1cccc(F)c1)c1ccc(CS(C)(=O)=O)c(F)c1 (centres unmarked) [Example D10, 2-[3-Fluoro-4-(methylsulfonyl-methyl)-phenyl]-N-[[2-(3-fluorophenyl)-5-(trifluoromethyl)-2H-pyrazol-3-yl]-methyl]-propionamide] | 75 nM
20 | CCC(=O)c1ccc(C(C)C(=O)NCc2cc(C(F)(F)F)nn2-c2cccc(F)c2)cc1F (centres unmarked) [Example E1, N-[[2-(3-Fluorophenyl)-5-(trifluoromethyl)-2H-pyrazol-3-yl]-methyl]-2-(3-fluoro-4-propanoyl-phenyl)-propionamide] | 24 nM
21 | CCC(=O)c1ccc(C(C)C(=O)NCc2cc(C(F)(F)F)nn2-c2cccc(OC)c2)cc1F (centres unmarked) [Example E2, 2-(3-Fluoro-4-propanoyl-phenyl)-N-[[2-(3-methoxyphenyl)-5-(trifluoromethyl)-2H-pyrazol-3-yl]-methyl]-propionamide] | 35 nM
22 | CCC(=O)c1ccc(C(C)C(=O)NCc2cc(C(F)(F)F)nn2-c2ccc(F)c(F)c2)cc1F (centres unmarked) [Example E3, N-[[2-(3,4-Difluoro-phenyl)-5-(trifluoromethyl)-2H-pyrazol-3-yl]-methyl]-2-(3-fluoro-4-propanoyl-phenyl)-propionamide] | 62 nM
23 | CC(C(=O)NCc1cc(C(F)(F)F)nn1-c1cccc(Cl)c1)c1ccc(C(N)=O)c(F)c1 (centres unmarked) [Example E4, 4-[1-[[2-(3-Chlorphenyl)-5-(trifluormethyl)-2H-pyrazol-3-yl]-methyl-carbamoyl]-ethyl]-2-fluoro-benzamide] | 8 nM
